Measured values taken from US20130251783A1, “LIPOSOMES CONTAINING PERMEATION ENHANCERS FOR ORAL DRUG DELIVERY” (Universitat Heidelberg, priority 2011, published 2013).

What was measured:
Caco-2 cells [1] = settings: cited from earlier work
rabbits = settings: cited from earlier work
rats [2] = settings: cited from earlier work
Caco-2 cells [3] = test: Alamar Blue cytotoxicity assay; type: cell-based
Procedure: (§1) Caco-2 cells were grown in T-75 flasks in Dulbecco's modified Eagle's medium (DMEM) supplemented with 10% FBS, 1% non-essential amino acids, 1% pyruvate, 1% L-glutamine, 100 U/ml penicillin and 100 μg/ml streptomycin at 37° C. in an atmosphere with 5% CO2 and in equilibrium with distilled water. The medium was changed every other day, and the cells were subcultured at 80% confluency. Cells were used in the experiments described below.
(§2) Cytotoxicity of liposomes and bio-enhancer solutions was investigated using the Alamar Blue® assay (AbD Serotec, Oxford, UK) and by determination of the release of lactate dehydrogenase (LDH) with a test kit (Sigma-Aldrich, Taufkirchen, Germany). […] The formed NADH in turn reduces a tetrazolium salt to a red-coloured product which can be determined photometrically. […]
In terms of the Alamar Blue® assay, groups of eight wells were incubated with the solutions of the bio-enhancers in five concentrations (1 μM, 10 μM, 100 μM, 1 mM and 10 mM) and the liposomal formulations in three concentrations (0.5 mM, 5 mM and 50 mM total lipid) in KRB for 2, 4, and 8 h at 37° C. […] After 4 h at 37° C., the colour change of the dye was determined at an excitation wavelength of 530 nm and an emission wavelength of 590 nm in a Fluoroskan Ascent® plate reader. […] Cell viability was expressed as follows: […]

Caco-2 cells [4] = test: LDH release cytotoxicity assay; type: cell-based; settings: free solution, all concentrations (likely inhibition of the enzymatic reaction)
Procedure: as §1, §2
For the LDH release assay, cells were treated similar as described for the Alamar Blue® cytotoxicity assay with little changes. […] The reaction was stopped by the addition of 10 μl 1N HCl and subsequently, the colour change of the dye was measured by a Tecan microplate absorbance reader (Sunrise, Tecan, Grodig, Austria) at a wavelength of 490 nm and a reference wavelength of 700 nm. To eliminate the influence of the liposomes and the bio-enhancers on the absorbance, a blank was measured of the formulations with a concentration equal to the final assay concentration. […]

rats [5] = settings: rats fed daily around 37.7 mg/kg for two years; cited from earlier work

## C[C@H](CCC(=O)N(C)CC(=O)O)[C@H]1CC[C@H]2[C@@H]3[C@H](O)C[C@@H]4C[C@H](O)CC[C@]4(C)[C@H]3C[C@H](O)[C@]12C [CS, cholylsarcosine]
Caco-2 cells [1]
  Cytotoxicity in WST-1 transformation assay: no cytotoxicity

## CCCCCCCCCCCCCCCC[n+]1ccccc1 [CpCl, cetylpyridinium chloride]
rabbits
  LD50: 400 mg/kg
Rats [2]
  LD50: 200 mg/kg
Caco-2 cells [3]; Caco-2 cells
  Toxicity compared among the investigated enhancers: most toxic
Caco-2 cells [3]; free enhancer in KRB, concentration 1 mM
  Cytotoxicity (cell viability): strong cytotoxicity
Caco-2 cells [4]
  LDH release compared to incubation with KRB: lower as the release after incubation with KRB

## CCCCCCCCCCCCCCCCCCN [SA, stearylamine]
Rats [5]
  Side effects: without causing any side effects
